According to PMC9130538, “Amino acids in transmembrane helix 1 confer major functional differences between human and mouse orthologs of the polyspecific membrane transporter OCT1” (The Journal of Biological Chemistry, 2022):

Columns and labels:
[1] = molecular target: T1, human OCT1 (Homo sapiens, UniProt O15245); experiment: Cellular uptake by HEK293 cells overexpressing human OCT1 (wildtype)
T1 sequence (O15245 1-554): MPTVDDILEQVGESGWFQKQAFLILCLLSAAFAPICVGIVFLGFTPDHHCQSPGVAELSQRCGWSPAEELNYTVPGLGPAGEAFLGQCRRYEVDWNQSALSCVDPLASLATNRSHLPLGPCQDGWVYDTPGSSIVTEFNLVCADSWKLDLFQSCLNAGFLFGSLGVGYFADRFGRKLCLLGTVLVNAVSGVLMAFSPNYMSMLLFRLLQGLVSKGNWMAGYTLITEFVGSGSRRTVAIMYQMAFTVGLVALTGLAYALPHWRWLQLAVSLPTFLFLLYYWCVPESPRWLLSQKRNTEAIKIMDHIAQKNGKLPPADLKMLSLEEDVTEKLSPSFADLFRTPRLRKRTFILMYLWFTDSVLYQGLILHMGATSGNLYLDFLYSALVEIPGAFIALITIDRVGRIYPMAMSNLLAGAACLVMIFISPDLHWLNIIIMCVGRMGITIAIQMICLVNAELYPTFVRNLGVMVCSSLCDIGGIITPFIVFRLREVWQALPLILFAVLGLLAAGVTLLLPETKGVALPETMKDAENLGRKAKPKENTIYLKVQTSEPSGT
Description: Generation and characterization of these cell lines has been described in detail before ([34], [48], [49]). Cells were cultured in Dulbecco’s Modified Eagle’s Medium supplemented with 10% fetal bovine serum, 100 U/ml penicillin, and 100 μg/ml streptomycin at 37 °C and 5% CO2 and were passaged twice a week.
At 48 h prior to the experiment, 6 × 10^5 cells were seeded per well in 12-well plates. When using transiently transfected cells, 5 × 10^5 T-REx-293 cells (Life Technologies) were seeded per well in 12-well plates 72 h prior to the experiment, and they were transfected 24 h later as described previously. Twelve-well plates were precoated with poly-D-lysine.
(§1) Cellular uptake experiments were performed at 37 °C and pH 7.4 using HBSS supplemented with 10 mM Hepes (in the following referred to as HBSS+). Cells were washed with 1 ml prewarmed (37 °C) HBSS+, and the uptake was initiated by adding 400 μl of prewarmed HBSS+ containing the substrate. Uptake was allowed for exactly 2 min and afterward stopped by adding 2 ml ice-cold HBSS+. Cells were washed twice with 2 ml ice-cold HBSS+ and lysed with 80% acetonitrile supplemented with internal standard, 0.1 N NaOH/0.1% SDS, or radioimmunoprecipitation buffer for LC–MS/MS, liquid scintillation counting, or fluorescence spectroscopy detection, respectively. Intracellular substrate concentrations were measured as described in the following and were then normalized to the amount of total protein in the samples as measured using the bicinchoninic acid assay ([51]).
For LC–MS/MS quantification of intracellular substrate concentrations, the cell lysate was centrifuged at 16,000g for 15 min, and 350 μl of supernatant was evaporated to dryness under nitrogen flow at 40 °C. The sample was reconstituted with 200 μl 0.1% formic acid, and between 2 and 30 μl were injected into the LC–MS/MS system (Table S1).
An API4000 QTRAP tandem mass spectrometer with ESI interface (AB SCIEX) was used, coupled to a Shimadzu Nexera X2 UHPLC system with LC 30AD pumps and SiL 30AC autosampler (Shimadzu).
Intracellular concentrations of radioactively labeled substrates MPP^+ and TEA^+ were quantified using liquid scintillation counting. To this end, 400 μl cell lysate was transferred into a 20 ml scintillation vial, 9 ml Aquasafe 500 Plus liquid scintillator (both Zinsser Analytics) was added, and the sample was measured in the Scintillation Counter LS6500 (Beckman Coulter).
For both analyses, SPSS Statistics, version 28 (SPSS, Inc, IBM) was used.

[2] = molecular target: T2, human OCT1 with mouse TMH1 (human–mouse chimeric OCT1) (Homo sapiens, UniProt O15245, A31S/C36Y/F32L/I24L/L28I); experiment: Uptake by HEK293 cells transiently overexpressing chimeric human OCT1 carrying mouse TMH1; assay type: cell-based; conditions: 200 μM trospium, 2 min, transient transfection
T2 construct: expressed in transfected cells
Description: (§2) Human–mouse chimeric OCT1 constructs were generated using the overlap extension method ([50]) and have been characterized before ([34]). […] All constructs were validated by capillary sequencing of the complete open reading frame of OCT1 before transfection into HEK293 cells.
(§3) For transient transfection of OCT1 constructs into HEK293 cells for uptake experiments, 5 × 10^5 T-REx-293 cells (Life Technologies) were seeded per well in 12-well plates precoated with poly-D-lysine. […] At 48 h later, transfection efficacy was assessed microscopically by visualizing the GFP signal of the cotransfected GFP vector, and the cells were subsequently used for uptake experiments. […]
as §1, with “Cells were washed with 1 ml prewarmed (37 °C) HBSS+, and the uptake was initiated by adding 400 μl of prewarmed HBSS+ containing the substrate. Uptake was allowed for exactly 2 min and afterward stopped by adding 2 ml ice-cold HBSS+.” left out, “([51]). […]” for “([51]).”

[3] = molecular target: T3, human OCT1 Cys36Tyr (Homo sapiens, UniProt O15245, C36Y); experiment: Uptake by HEK293 cells overexpressing Cys36Tyr human OCT1; assay type: cell-based; conditions: 200 μM trospium, 2 min, transient transfection
T3 construct: expressed in transfected cells
Description: as §2, §3
as §1, with “Cells were washed with 1 ml prewarmed (37 °C) HBSS+, and the uptake was initiated by adding 400 μl of prewarmed HBSS+ containing the substrate. Uptake was allowed for exactly 2 min and afterward stopped by adding 2 ml ice-cold HBSS+.” left out, “([51]). […]” for “([51]).”

[4] = molecular target: T4, human OCT1 Phe32Leu (Homo sapiens, UniProt O15245, F32L); experiment: Uptake by HEK293 cells overexpressing Phe32Leu human OCT1; assay type: cell-based; conditions: 200 μM trospium, 2 min, transient transfection, versus human wildtype
T4 construct: expressed in transfected cells
Description: as §2, §3
as §1, with “Cells were washed with 1 ml prewarmed (37 °C) HBSS+, and the uptake was initiated by adding 400 μl of prewarmed HBSS+ containing the substrate. Uptake was allowed for exactly 2 min and afterward stopped by adding 2 ml ice-cold HBSS+.” left out, “([51]). […]” for “([51]).”

[5] = molecular target: T5, mouse Oct1 Leu32Phe (Mus musculus, UniProt O08966, L32F); experiment: Uptake by HEK293 cells overexpressing Leu32Phe mouse Oct1; assay type: cell-based; conditions: 200 μM trospium, 2 min, transient transfection
T5 construct: expressed in transfected cells
Description: as §2, §3
as §1, with “Cells were washed with 1 ml prewarmed (37 °C) HBSS+, and the uptake was initiated by adding 400 μl of prewarmed HBSS+ containing the substrate. Uptake was allowed for exactly 2 min and afterward stopped by adding 2 ml ice-cold HBSS+.” left out, “([51]). […]” for “([51]).”

[6] = human, estimated based on clinical data, ref [39]; cited from earlier work
[7] = human versus mouse OCT1, stably transfected HEK293

T5 sequence (O08966 whole entry L32F): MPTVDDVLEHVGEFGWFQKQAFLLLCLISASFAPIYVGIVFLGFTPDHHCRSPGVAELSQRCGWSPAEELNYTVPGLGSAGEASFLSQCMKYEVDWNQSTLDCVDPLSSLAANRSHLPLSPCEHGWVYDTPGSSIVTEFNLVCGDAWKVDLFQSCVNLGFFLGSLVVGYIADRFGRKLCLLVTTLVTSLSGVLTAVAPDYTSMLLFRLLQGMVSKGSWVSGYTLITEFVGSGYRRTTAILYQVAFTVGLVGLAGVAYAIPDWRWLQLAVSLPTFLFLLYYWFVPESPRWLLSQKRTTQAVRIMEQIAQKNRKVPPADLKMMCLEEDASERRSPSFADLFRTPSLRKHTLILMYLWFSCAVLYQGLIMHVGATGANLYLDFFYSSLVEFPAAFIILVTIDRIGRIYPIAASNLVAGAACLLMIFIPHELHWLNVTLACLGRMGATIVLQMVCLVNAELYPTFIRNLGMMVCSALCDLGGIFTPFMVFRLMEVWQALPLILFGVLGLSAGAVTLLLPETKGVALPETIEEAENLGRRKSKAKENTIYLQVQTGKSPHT

O=C(O[C@H]1C[C@H]2CC[C@@H](C1)[N+]21CCCC1)C(O)(c1ccccc1)c1ccccc1 [Trospium]
difference in uptake between human and mouse OCT1 at low concentration ([1]; 100 nM, 2 min, stably transfected HEK293): did not see differences in uptake
fold higher capacity (vmax) of human OCT1 than mouse Oct1 [1, 7]: 9.0 fold
fold lower affinity (KM) of human OCT1 than mouse Oct1 (higher affinity of mouse Oct1) [1, 7]: 10.6 fold
decrease of trospium uptake compared with human wildtype [2]: 91%
effect of Cys36Tyr on uptake of trospium [3]: did not affect
decrease of trospium uptake by Phe32Leu in human OCT1 [4]: 79%
trospium uptake exceeding the uptake of the human ortholog ([5]; versus human wildtype OCT1): 2.8 fold
increase of trospium uptake by Leu32Phe in mouse Oct1 ([5]; versus mouse wildtype): sevenfold
clinically relevant (plasma) concentration [6]: 13.3 nM
